Results on five compounds are retold here after EP1689759B1, “METHOD FOR PRODUCING PURE DISODIUM PAMIDRONATE” (Mustafa Nevzat Ilac Sanayii A.S., priority 2003, dated 2005).

Several values for one entry are separate records, joined by “and”; a condition that tells them apart may be missing. Identical values can stand only once.

A short description of data set [1]: Storage stability at normal pressure over 1 week under ICH conditions (water content by KF). The data set is classed as physicochemical. The procedure: (§1) These investigations were carried out in a HERAEUS vacuum drying oven of a volume of 53 liters, at a relative humidity (RH) of less than 1 %. Investigations of storage stability at normal pressure were carried out over a period of 1 week, in compliance with the internationally accepted standards about storage stability test conditions for pharmaceuticals as defined in ICH (International Conference on Harmonization of Technical Requirements for Registration of Pharmaceuticals for Human Use), at 25°C / 60 % RH for longterm stability condition, 30°C / […] for intermediate term stability condition and 40°C / 75 % RH for accelerated stability condition.
Table 1. Water content (%, KF) of 3 lots of disodium pamidronate after storage for 1 week

Data set [2] in a line: Storage at room temperature at reduced pressure in vacuum drying oven (water content by KF). The data set is classed as physicochemical. The note with it: for water by KF method: room temperature, reduced pressure (20 millibar), RH less than 1 %. As for the experimental part: as §1
For data set [3] the following is noted: from 1 week under the conditions of 24°C, 50 % RH; water contents 24,41 %; cited from earlier work.

`NCCC(O)(P(=O)([O-])O)P(=O)([O-])O.O.O.O.O.O.[Na+].[Na+]` [disodium pamidronate pentahydrate]: the storage stability result in data set [1] (1 week at 25°C/60 % RH, 30°C/60 % RH and 40°C/75 % RH) is “stable”. In addition, the “water by KF method” value in data set [2] (after 4 hours of storage) is 24.7%; in data set [2] (after 10 hours of storage) it was 24.4%; in data set [2] (after 38 hours of storage (determined in triplicate)) it was 24.35% and 24.38% and 24.32%. Further, in data set [2] (stored at room temperature at reduced pressure (20 millibar)), the “Stability of the product (loss of water)” value is given as “no loss of water”.
With `NCCC(O)(P(=O)([O-])O)P(=O)([O-])O.O.O.O.O.O.[Na+].[Na+]` [Lot 0035, disodium pamidronate pentahydrate], the “Water content (%, KF)” value worked out at 24.40% in data set [1] (after storage for 1 week at 25°C/60%RH (longterm stability condition), listed as 0035); 24.39% in data set [1] (after storage for 1 week at 30°C/60%RH (intermediate term stability condition), listed as 0035); 24.27% in data set [1] (after storage for 1 week at 40°C/75%RH (accelerated stability condition), listed as 0035); 24.38% in data set [1] (initial, before storage, listed as 0035).
In the case of `NCCC(O)(P(=O)([O-])O)P(=O)([O-])O.O.O.O.O.O.[Na+].[Na+]` [5 hydrates], the “loss of water contents on storage” value in data set [3] is given as “a part of the water contents (24,41 %) is lost”.
In the case of `NCCC(O)(P(=O)([O-])O)P(=O)([O-])O.O.O.O.O.O.[Na+].[Na+]` [Lot 0036, disodium pamidronate pentahydrate], the “Water content (%, KF)” value in data set [1] (after storage for 1 week at 25°C/60%RH (longterm stability condition), listed as 0036) is 24.32%; in data set [1] (after storage for 1 week at 30°C/60%RH (intermediate term stability condition), listed as 0036) it was 24.35%; in data set [1] (after storage for 1 week at 40°C/75%RH (accelerated stability condition), listed as 0036), 24.39%; in data set [1] (initial, before storage, listed as 0036), 24.48%.
For `NCCC(O)(P(=O)([O-])O)P(=O)([O-])O.O.O.O.O.O.[Na+].[Na+]` [Lot 0034, disodium pamidronate pentahydrate], the “Water content (%, KF)” value in data set [1] (after storage for 1 week at 25°C/60%RH (longterm stability condition), listed as 0034) is 24.37%; in data set [1] (after storage for 1 week at 30°C/60%RH (intermediate term stability condition), listed as 0034), 24.38%; in data set [1] (after storage for 1 week at 40°C/75%RH (accelerated stability condition), listed as 0034) it was 24.43%; in data set [1] (initial, before storage, listed as 0034) it was 24.55%.
